For test [1], the target named is T1, ACSS2 (Mus musculus, UniProt Q9QXG4).
T1 construct: from tissue; host or cells: whole animal, C57BL/6J mice; plasma palmitate read out
In words: PK-PD study: inhibition of 13C incorporation into fatty-acid (palmitate) in vivo. Particulars: C57BL/6J mice, 50 mg/kg IP, 13C-ETOH PO at 1 h, plasma at 3 h, read-out: inhibition of 13C-Acetate incorporation into fatty-acids (palmitate). The procedure:
Overnight fasted Female C57BL/6J mice (3n/group) were dosed at time=0 h with the indicated compound at 50 mg/kg IP (vehicle: 20% Solutol, 80% 0.2M Phosphate buffer pH 7.0). At time 1 h, 13C-ETOH (2.25 gr/kg 13C-ETOH dissolved in saline to a total volume of 10 ml/kg) were administrated by PO. At time 3 h plasma samples were taken for Fatty-acid analysis by Mass-spectrometry. The incorporation of ^13C into palmitate was done by Mass-spectrometry after saponification of the samples and the percent incorporation of ^13C was calculated.

The target in the next test is T2, ACSF2 (Homo sapiens, UniProt Q96CM8).
T2 construct: purchased Cusabio, China
T2 sequence (Q96CM8 42-615): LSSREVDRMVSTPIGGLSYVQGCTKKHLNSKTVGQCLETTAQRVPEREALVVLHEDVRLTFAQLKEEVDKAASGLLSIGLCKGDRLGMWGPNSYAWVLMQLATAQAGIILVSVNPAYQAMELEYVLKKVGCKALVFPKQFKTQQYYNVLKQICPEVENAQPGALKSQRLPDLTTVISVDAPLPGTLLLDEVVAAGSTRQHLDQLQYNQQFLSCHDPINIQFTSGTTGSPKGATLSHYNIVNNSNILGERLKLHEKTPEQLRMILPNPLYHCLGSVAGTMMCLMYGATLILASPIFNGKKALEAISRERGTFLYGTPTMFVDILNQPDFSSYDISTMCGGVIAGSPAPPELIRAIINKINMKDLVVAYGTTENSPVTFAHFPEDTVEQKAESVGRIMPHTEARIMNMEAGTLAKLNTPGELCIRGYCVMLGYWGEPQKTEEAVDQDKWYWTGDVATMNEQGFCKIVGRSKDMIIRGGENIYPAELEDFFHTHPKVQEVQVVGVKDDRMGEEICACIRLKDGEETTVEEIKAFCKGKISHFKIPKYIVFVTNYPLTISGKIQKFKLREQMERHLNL
Nature of the test: Acyl-CoA synthetases selectivity panel: ACSF2. Format: biochemical. Particulars: human recombinant protein, substrate octanoate, AMP readout by HPLC; read-out: HPLC based activity assays IC50 (UM) ACSF2. From the text: (§1) The biochemical assays for testing the selectivity of the compounds according to this invention, were done using human recombinant proteins (Cusabio, China). The readout of the assays was AMP levels, the […] of the reactions, by HPLC method. The acyl substrates (Sigma-Aldrich) of the assays were as followed: ACSS1/ACSS2—Acetate, AACS-Acetoacetyl, ACSF2—Octanoate and ACSL5—Palmitate. The protein in this panel include ACSS1, the closest homolog of ACSS2, in addition to representative short/medium/long chain acyl-CoA syntatases.

The target of test [2] is T3, ACSS2 (Homo sapiens, UniProt Q9NR19). In words: Acyl-CoA synthetases selectivity panel: ACSS2. It counts as biochemical. Set-up: purchased Cusabio, China. Particulars: human recombinant protein, substrate acetate, AMP readout by HPLC; read-out: HPLC based activity assays IC50 (UM) ACSS2.
Excerpt: as §1

In another test the target is T4, ACSS1 (Homo sapiens, UniProt Q9NUB1).
T4 construct: purchased Cusabio, China
T4 sequence (Q9NUB1 38-689): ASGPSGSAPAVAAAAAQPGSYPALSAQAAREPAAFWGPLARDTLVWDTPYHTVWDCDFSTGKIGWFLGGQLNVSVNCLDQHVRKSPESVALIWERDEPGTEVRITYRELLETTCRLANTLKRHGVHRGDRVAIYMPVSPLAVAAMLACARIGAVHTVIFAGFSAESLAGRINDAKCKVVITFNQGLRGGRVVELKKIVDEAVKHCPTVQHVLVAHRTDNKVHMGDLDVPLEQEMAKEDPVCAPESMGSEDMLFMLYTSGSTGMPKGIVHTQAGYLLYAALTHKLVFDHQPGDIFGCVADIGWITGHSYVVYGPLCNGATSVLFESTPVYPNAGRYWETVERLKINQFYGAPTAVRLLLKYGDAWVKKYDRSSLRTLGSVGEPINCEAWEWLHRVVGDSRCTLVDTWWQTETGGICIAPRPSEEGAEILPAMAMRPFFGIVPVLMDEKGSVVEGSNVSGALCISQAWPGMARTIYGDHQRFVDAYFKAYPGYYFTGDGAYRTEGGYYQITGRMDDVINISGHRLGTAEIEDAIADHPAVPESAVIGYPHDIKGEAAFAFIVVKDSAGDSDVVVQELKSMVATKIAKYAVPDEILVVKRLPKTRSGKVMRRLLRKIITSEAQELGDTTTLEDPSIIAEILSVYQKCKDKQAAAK
In words: Acyl-CoA synthetases selectivity panel: ACSS1. Particulars: human recombinant protein, substrate acetate, AMP readout by HPLC; read-out: HPLC based activity assays IC50 (UM) ACSS1. Format: biochemical.
Excerpt: as §1

The next test concerns the target T5, ACSL5 (Homo sapiens, UniProt Q9ULC5).
T5 construct: purchased Cusabio, China
T5 sequence (Q9ULC5 1-683): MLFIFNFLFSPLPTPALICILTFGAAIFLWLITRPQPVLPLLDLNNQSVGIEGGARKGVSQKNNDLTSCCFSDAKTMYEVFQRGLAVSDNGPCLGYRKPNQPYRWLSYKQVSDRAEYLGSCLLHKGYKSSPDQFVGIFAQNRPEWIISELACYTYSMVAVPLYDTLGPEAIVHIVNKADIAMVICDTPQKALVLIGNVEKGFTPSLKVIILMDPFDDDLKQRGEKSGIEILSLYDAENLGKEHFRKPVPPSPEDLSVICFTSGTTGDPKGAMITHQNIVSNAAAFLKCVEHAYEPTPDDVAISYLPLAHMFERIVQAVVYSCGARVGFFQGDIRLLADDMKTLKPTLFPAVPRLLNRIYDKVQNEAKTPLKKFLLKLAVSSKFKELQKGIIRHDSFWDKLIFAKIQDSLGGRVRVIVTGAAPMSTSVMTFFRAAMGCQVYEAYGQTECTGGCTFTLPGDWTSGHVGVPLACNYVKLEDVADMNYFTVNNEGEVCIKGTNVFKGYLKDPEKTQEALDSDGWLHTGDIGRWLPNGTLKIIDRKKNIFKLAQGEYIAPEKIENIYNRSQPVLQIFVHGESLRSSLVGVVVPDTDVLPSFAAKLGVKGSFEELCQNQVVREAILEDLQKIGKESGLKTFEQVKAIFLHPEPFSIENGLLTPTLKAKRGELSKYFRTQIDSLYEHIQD
In words: Acyl-CoA synthetases selectivity panel: ACSL5. Format: biochemical. Particulars: human recombinant protein, substrate palmitate, AMP readout by HPLC; read-out: HPLC based activity assays IC50 (UM) ACSL5.
Excerpt: as §1

The target in a further test is T6, AACS (Homo sapiens, UniProt Q86V21).
T6 construct: purchased Cusabio, China
T6 sequence (Q86V21 1-672): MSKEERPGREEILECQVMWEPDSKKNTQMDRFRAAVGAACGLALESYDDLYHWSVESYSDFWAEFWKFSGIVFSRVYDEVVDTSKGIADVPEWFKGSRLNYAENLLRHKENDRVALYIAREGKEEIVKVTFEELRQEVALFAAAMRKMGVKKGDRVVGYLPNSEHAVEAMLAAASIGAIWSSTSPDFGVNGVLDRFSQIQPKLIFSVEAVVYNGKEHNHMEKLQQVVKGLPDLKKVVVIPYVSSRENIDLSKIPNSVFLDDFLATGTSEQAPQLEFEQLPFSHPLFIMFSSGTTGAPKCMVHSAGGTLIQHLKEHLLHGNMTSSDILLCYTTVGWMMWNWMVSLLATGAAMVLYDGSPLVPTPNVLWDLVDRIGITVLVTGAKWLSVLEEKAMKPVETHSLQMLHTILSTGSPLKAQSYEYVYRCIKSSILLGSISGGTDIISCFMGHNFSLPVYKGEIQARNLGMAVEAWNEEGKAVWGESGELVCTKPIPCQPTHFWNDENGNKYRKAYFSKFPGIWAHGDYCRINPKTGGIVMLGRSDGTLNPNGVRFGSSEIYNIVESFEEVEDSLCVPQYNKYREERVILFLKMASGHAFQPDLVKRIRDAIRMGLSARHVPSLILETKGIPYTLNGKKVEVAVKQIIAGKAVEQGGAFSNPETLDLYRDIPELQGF
In words: Acyl-CoA synthetases selectivity panel: AACS. It counts as biochemical. Particulars: human recombinant protein, substrate acetoacetyl, AMP readout by HPLC; read-out: HPLC based activity assays IC50 (UM) AACS.
Excerpt: as §1

Test [3] relates to MDA-MB-468 breast cancer cells xenograft. In words: In-vivo efficacy study in MDA-MB-468 breast cancer cells xenograft. Particulars: 100 mg/kg orally once daily; female NMRI nude mice. The procedure: An in-vivo efficacy study was carried out by Charles-River Laboratories at the Freiburg, Germany site.
Tumor fragments from Breast cancer cell line MDA-MB-468 passaged as subcutaneous xenograft were subcutaneously implanted into female NMRI nude mice (Crl:NMRI-Foxnlnu). The animals were randomized into groups (n=10) when tumors volume reached 50 to 250 mm3. […] Body weights and tumor volume [mm3] by caliper were measured twice weekly.

In test [4] the target is T3, ACSS2. Nature of the test: cell-based.
Protocol: The cellular activity of ACSS2 was based on tracing the incorporation of carbons from ^13C-Acetate into fatty-acids.
BT474/MDA-MB-468 cells growing in DMEM+25 mM D-glucose+1 mM sodium pyruvate+10% FBS+2 mM glutamine were plated in 12-well plates at 0.4×10^6 cells/well. The cells were then incubated at CO2 incubator for 24 hrs at hypoxic conditions (1% O2) before treated with compounds. At day 2, the medium was replaced to DMEM medium containing 15 mM Glucose, 1 mM Pyruvate, 0.65 mM Glutamine, 1% Dialyzed serum, 3.5 ug/ml Biotin, 0.2 mM ^13C-Acetate and various concentrations of the compounds. The cells were incubated for 5 hours at CO2 incubator in hypoxic conditions (1% O2). At the end of the 5 hours' incubation, the cells were washed twice with cold PBS, harvested in 1 ml PBS and transfer into V-shaped HPLC glass vials and centrifuge for 10 min at 600 g at 4 C. The supernatant was removed, and the cells' pellets were stored at −80° C. until taken for saponification.
The cells pellets were resuspended with 0.5 ml of the 90% Methanol, 10% H2O, 0.3M NaOH mixture and incubated at 80° C. for 60 min. Following the incubation, 50 μl formic acid and 0.4 ml hexane were added and the mixture was vortexed for 2 minutes. The vials were left few minutes for phases separation and then 200 μl of the top hexane phase extracted to a new glass vial. The hexane was dried under nitrogen and reconstituted in 100 μl of Methanol: Acetonitrile 5:3 mixture. The solution transferred to Eppendorf tubes, spun down at 17000G for 20 min and transferred to LC-MS vials.
The analysis was performed with Thermo Q Exactive mass spectrometer with HESI probe and Dionex Ultimate 3000 UHPLC system. The separations were performed on Phenomenex Kintex 2.6u XB-C18 100A 150×2.10 mm column by injecting 5 ul of each sample. The chromatography started with a linear gradient from 85% to 100% of organic solvent (Methanol: Acetonitrile 1:1) versus 10 mM Ammonium Acetate buffer pH 4.7 for 3.5 minutes, followed by 4.5 minutes of isocratic 100% organic solvent and then 3 minutes of isocratic initial conditions, at a flow rate of 0.3 ul/min. The MS source conditions that were used: capillary temperature 325° C., sheath flow 25, aux flow 15, spray voltage 3.8 kV, aux temperature 300° C. The data collected from Negative ion mode at resolution of 70000 at Full-MS mode in 75-1000 m/z range.
The analysis of ^13C acetate incorporation into fatty acids (palmitate, myristate and stearate) performed on TraceFinder 3.2.512.0. The negative control areas and ^13C isotopic theoretical natural abundance were subtracted from the samples areas. Total ^13C incorporation for each fatty-acid (palmitate, myristate and stearate) was calculated and presented as percentage of the total amount.

The structures appear in SMILES notation. Some results are limits rather than exact numbers.

T3 sequence (Q9NR19 whole entry): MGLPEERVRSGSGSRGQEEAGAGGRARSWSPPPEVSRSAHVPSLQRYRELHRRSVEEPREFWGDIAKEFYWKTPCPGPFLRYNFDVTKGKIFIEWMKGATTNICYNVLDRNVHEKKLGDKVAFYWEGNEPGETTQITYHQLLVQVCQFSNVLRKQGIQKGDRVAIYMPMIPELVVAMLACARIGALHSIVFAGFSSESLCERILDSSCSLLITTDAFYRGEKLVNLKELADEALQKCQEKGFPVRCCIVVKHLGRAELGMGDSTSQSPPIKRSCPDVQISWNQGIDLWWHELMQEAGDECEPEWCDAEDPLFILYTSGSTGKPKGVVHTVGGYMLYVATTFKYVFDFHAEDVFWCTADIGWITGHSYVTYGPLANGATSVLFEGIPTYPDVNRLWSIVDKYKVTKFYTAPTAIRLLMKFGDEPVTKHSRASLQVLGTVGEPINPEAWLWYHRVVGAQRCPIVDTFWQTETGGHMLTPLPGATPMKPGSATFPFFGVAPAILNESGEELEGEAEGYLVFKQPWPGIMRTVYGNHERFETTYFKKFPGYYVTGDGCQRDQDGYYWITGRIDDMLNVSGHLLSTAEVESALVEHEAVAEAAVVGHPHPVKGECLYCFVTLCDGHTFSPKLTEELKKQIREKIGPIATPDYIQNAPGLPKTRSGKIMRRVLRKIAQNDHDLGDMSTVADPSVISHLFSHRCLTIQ
T1 sequence (Q9QXG4 whole entry): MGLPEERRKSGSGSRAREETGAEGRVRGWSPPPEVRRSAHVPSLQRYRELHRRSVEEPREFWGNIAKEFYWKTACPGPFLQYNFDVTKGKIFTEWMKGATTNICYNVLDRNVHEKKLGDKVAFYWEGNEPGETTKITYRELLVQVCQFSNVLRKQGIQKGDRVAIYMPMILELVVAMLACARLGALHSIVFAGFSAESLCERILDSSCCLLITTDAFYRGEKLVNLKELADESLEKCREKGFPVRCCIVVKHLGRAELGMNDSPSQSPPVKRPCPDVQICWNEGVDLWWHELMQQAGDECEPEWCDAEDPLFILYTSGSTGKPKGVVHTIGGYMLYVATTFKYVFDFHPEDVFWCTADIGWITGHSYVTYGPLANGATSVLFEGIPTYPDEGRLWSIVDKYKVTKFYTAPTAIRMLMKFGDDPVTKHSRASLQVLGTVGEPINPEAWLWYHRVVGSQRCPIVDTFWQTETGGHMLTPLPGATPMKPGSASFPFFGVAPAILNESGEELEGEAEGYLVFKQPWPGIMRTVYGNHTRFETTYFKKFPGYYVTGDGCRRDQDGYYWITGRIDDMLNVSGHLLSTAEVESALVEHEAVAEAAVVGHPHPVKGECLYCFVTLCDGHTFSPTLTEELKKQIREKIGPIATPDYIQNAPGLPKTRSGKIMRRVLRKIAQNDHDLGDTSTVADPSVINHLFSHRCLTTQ

Consider `CC1=NN(c2ccc(OC(F)F)c(-c3cnccn3)c2)C(=O)C1C(=O)Nc1cccc(C(C)(F)F)c1` (stereo not drawn) [compound 328, N-[3-(1,1-difluoroethyl)phenyl]-1-[4-(difluoromethoxy)-3-pyrazin-2-yl-phenyl]-3-methyl-5-oxo-4H-pyrazole-4-carboxamide], for which the inhibition at 50 mg/kg on ACSS2 [1] worked out at 87%.
Broadly, the IC50 is the concentration needed to halve the response being measured. Consider `COc1ccc(N2N=C(C)C(C(=O)Nc3cccc(-c4ccco4)c3)C2=O)cc1` (stereo not drawn) [compound 266, N-(3-(furan-2-yl)phenyl)-1-(4-methoxyphenyl)-3-methyl-5-oxo-4,5-dihydro-1H-pyrazole-4-carboxamide], for which the IC50 at ACSF2 was 51 µM; at ACSS2 [2], below 1 nM; at ACSS1 it was 10 to 100 µM; on ACSL5, 35 µM; at AACS, 64 µM.
With `CC1=NN(c2ccccc2)C(=O)C1C(=O)Nc1cccc(C(C)(F)F)c1` (stereo not drawn) [compound 141], the IC50 on ACSF2 was 160 µM; at ACSS2 [2], 1 to 10 nM; at ACSS1, 10 to 100 µM; on ACSL5 it was above 100 µM; on AACS, 149 µM.
For the compound `CC1=NN(c2ccccc2)C(=O)C1C(=O)Nc1cccc(-c2ccco2)c1` (stereo not drawn) [compound 108], the IC50 at ACSF2 is 36 µM; at ACSS2 [2] it was below 1 nM; at ACSS1, 10 to 100 µM; at ACSL5, 76 µM; on AACS it was 84 µM.
For `CC1=NN(c2ccc(OC(F)(F)F)cc2)C(=O)C1C(=O)Nc1cc(C(C)(F)F)cs1` (stereo not drawn) [compound 296, N-(4-(1,1-difluoroethyl)thiophen-2-yl)-3-methyl-5-oxo-1-(4-(trifluoromethoxy)phenyl)-4,5-dihydro-1H-pyrazole-4-carboxamide], in test [3], the “tumor growth in MDA-MB-468 xenograft model” value is recorded as “inhibits tumor growth”.
Consider `COc1ccc(N2N=C(C)C(C(=O)Nc3cccc(C(C)(F)F)c3)C2=O)cn1` (stereo not drawn) [compound 242, N-(3-(1,1-difluoroethyl)phenyl)-1-(6-methoxypyridin-3-yl)-3-methyl-5-oxo-4,5-dihydro-1H-pyrazole-4-carboxamide], for which, on ACSS2 [1], the inhibition at 50 mg/kg turned out to be 84%.
In turn, `COC(=O)c1cccc(N2N=C(C)C(C(=O)Nc3cccc(-c4ncc[nH]4)c3)C2=O)c1` (stereo not drawn) [compound 167, Methyl 3-(4-((3-(1H-imidazol-2-yl)phenyl)carbamoyl)-3-methyl-5-oxo-4,5-dihydro-1H-pyrazol-1-yl)benzoate] showed an IC50 at ACSS2 [4] of 100 to 1000 nM.
The same measure, in the same setting: for `CC1=NN(c2cccc(C(F)(F)F)c2)C(=O)C1C(=O)Nc1cccc(-c2cnccn2)c1` (stereo not drawn) [compound 166] the value was above 1000 nM; for `CC(=O)Cc1cccc(NC(=O)C2C(=O)N(c3ccccc3)N=C2C)c1` (stereo not drawn) [compound 145], 100 to 1000 nM.
Still for that read-out and setting: for `COC(=O)c1cccc(N2N=C(C)C(C(=O)Nc3cccc(-c4cnccn4)c3)C2=O)c1` (stereo not drawn) [compound 164] the value was 100 to 1000 nM.
As for `COC(=O)c1cccc(N2N=C(C)C(C(=O)Nc3cccc(-c4ccco4)c3)C2=O)c1` (stereo not drawn) [compound 269, methyl 3-(4-((3-(furan-2-yl)phenyl)carbamoyl)-3-methyl-5-oxo-4,5-dihydro-1H-pyrazol-1-yl)benzoate], the IC50 was 28 µM at ACSF2; below 1 nM at ACSS2 [2]; 10 to 100 µM on ACSS1; 45 µM on ACSL5; 19 µM at AACS.
`CC1=NN(c2ccccc2)C(=O)C1C(=O)Nc1cccc(C(=O)N(C)C)c1` (stereo not drawn) [compound 220]: at ACSS2 [4], the IC50 was above 1000 nM.
As for `CC1=NN(c2ccc(C(F)(F)F)cc2)C(=O)C1C(=O)Nc1cccc(C(C)(F)F)c1` (stereo not drawn) [compound 264, N-(3-(1,1-difluoroethyl)phenyl)-3-methyl-5-oxo-1-(4-(trifluoromethyl)phenyl)-4,5-dihydro-1H-pyrazole-4-carboxamide], the IC50 on ACSF2 was 43 µM; on ACSS2 [2], 1 to 10 nM; on ACSS1, 1 to 10 µM; on ACSL5, 115 µM; at AACS, 52 µM.

Source of the values: patent US20250186433A1, “ACSS2 INHIBITORS AND METHODS OF USE THEREOF” (EpiVario, Inc., priority 2017, published 2025).
